Experimental data from DBAASP.
Values after ≈ are worked out from the molar mass of the structure shown. Values joined by “and” are separate entries in the source; they are usually repeats but may differ in a detail not shown here. Equal entries are not always repeated.

What was measured:
Assay in all cases: ≥ marks a high value that may be exact or a test limit, other limits are often not marked, values filed in µg/mL are converted to µM
[1] = tested on: Candida albicans ATCC 10231
Nocardia asteroides = tested on: Nocardia asteroides
[2] = tested on: Klebsiella pneumoniae 08040724
[3] = tested on: Psychrobacter faecalis X29
Candida glabrata 090902 = tested on: Candida glabrata 090902
[4] = tested on: Enterobacter cloacae CGMCC 1.57
[5] = tested on: Escherichia coli ATCC 25922
[6] = tested on: Enterococcus faecium 091299
[7] = tested on: Pseudomonas aeruginosa CGMCC 1.50
[8] = tested on: Staphylococcus aureus ATCC 25923
[9] = tested on: Enterococcus faecalis 981
Escherichia coli W160-37 = tested on: Escherichia coli W160-37
[10] = tested on: Staphylococcus aureus ATCC 8530
[11] = tested on: Pseudomonas aeruginosa NCTC 6751
Pseudomonas sp. ADP = tested on: Pseudomonas sp. ADP
Staphylococcus aureus = tested on: Staphylococcus aureus
Escherichia coli = tested on: Escherichia coli
Arthrobacter sp. = tested on: Arthrobacter sp.
Bacillus subtilis = tested on: Bacillus subtilis
Bacillus thuringiensis = tested on: Bacillus thuringiensis
[12] = tested on: Staphylococcus aureus A170
[13] = tested on: Staphylococcus epidermidis
[14] = tested on: Bacillus subtilis KCTC 3068
[15] = tested on: Staphylococcus aureus CCARM 3089
[16] = tested on: Salmonella typhimurium KCTC 1926
[17] = tested on: Staphylococcus aureus KCTC 1621
[18] = tested on: Escherichia coli CCARM 1229
[19] = tested on: Escherichia coli CCARM 1238
[20] = tested on: Staphylococcus aureus CCARM 3114
[21] = tested on: Escherichia coli KCTC 1682
[22] = tested on: Salmonella typhimurium CCARM 8003
[23] = tested on: Salmonella typhimurium CCARM 8009
[24] = tested on: Staphylococcus epidermidis KCTC 1917
[25] = tested on: Pseudomonas aeruginosa KCTC 1637
[26] = tested on: Pseudomonas aeruginosa ATCC 27853
[27] = tested on: Proteus vulgaris ATCC 49132
[28] = tested on: Enterococcus faecalis ATCC 29212
[29] = tested on: Micrococcus luteus ATCC 49732
[30] = tested on: Staphylococcus aureus ATCC 29213
[31] = tested on: Candida tropicalis ATCC 37097
[32] = tested on: Candida albicans ATCC 37092
[33] = tested on: Klebsiella oxytoca ATCC 49131
[34] = tested on: Rhizopus stolonifer CECT 2344
[35] = tested on: Aspergillus niger CECT 2694
[36] = tested on: Penicillium expansum EPS 26
[37] = tested on: Fusarium oxysporum f. sp. lycopersici ATCC 201829

CC[C@H](C)[C@H](NC(=O)[C@H](CCCCN)NC(=O)[C@H](CC(C)C)NC(=O)[C@H](C)NC(=O)[C@@H](NC(=O)CNC(=O)[C@H](CCSC)NC(=O)[C@@H](N)Cc1ccccc1)[C@@H](C)O)C(=O)N[C@@H](C)C(=O)N[C@@H](C)C(=O)N[C@@H](CC(N)=O)C(=O)N[C@H](C(=O)N[C@@H](CC(C)C)C(=O)N1CCC[C@H]1C(=O)N[C@@H](C)C(=O)N[C@@H](C)C(=O)N[C@@H](Cc1ccccc1)C(=O)N[C@H]1CSSC[C@@H](C(=O)O)NC(=O)[C@H](CCCCN)NC(=O)[C@H](CCCCN)NC(=O)[C@H](Cc2ccccc2)NC(=O)[C@H]([C@@H](C)CC)NC(=O)[C@H](CCCCN)NC1=O)C(C)C [FMGTALKIAANVLPAAFCKIFKKC]
MIC [1]: 100 µM (≈ 258 µg/mL) | MIC (Nocardia asteroides): 3.1 µM (≈ 8.01 µg/mL) | MIC [2]: ≥ 400 µM | MIC [3]: 12.5 µM (≈ 32.3 µg/mL) | MIC (Candida glabrata 090902): 12.5 µM (≈ 32.3 µg/mL) | MIC [4]: ≥ 100 µM | MIC [5]: 200 µM (≈ 517 µg/mL) | MIC [6]: ≥ 100 µM | MIC [7]: ≥ 400 µM | MIC [8]: 3.1 µM (≈ 8.01 µg/mL) | MIC [9]: 3.1 µM (≈ 8.01 µg/mL)

CC(=O)N[C@@H](Cc1ccccc1)C(=O)N[C@@H](CCCN=C(N)N)C(=O)N[C@@H](CCCCN)C(=O)N[C@@H](CC(C)C)C(=O)N[C@@H](Cc1ccccc1)C(=O)N[C@@H](CCCN=C(N)N)C(=O)N[C@H](C(=O)N[C@@H](Cc1ccc(O)cc1)C(=O)N[C@@H](CO)C(=O)N[C@@H](CC(N)=O)C(=O)N[C@@H](Cc1ccccc1)C(=O)N[C@@H](CC(C)C)C(=O)N[C@@H](CCCN=C(N)N)C(=O)NCC(=O)N[C@@H](CCCCN)C(=O)N[C@@H](CC(C)C)C(=O)N[C@@H](CCCCN)C(=O)N[C@@H](CC(C)C)C(N)=O)C(C)C [FRKLFRVYSNFLRGKLKL]
MIC (Escherichia coli W160-37): 11 µM (≈ 25.6 µg/mL) | MIC [10]: 11 µM (≈ 25.6 µg/mL) | MIC [11]: 22 µM (≈ 51.2 µg/mL)

CC[C@H](C)[C@H](NC(=O)[C@H](CCCN=C(N)N)NC(=O)[C@H](CC(C)C)NC(=O)CN)C(=O)N[C@@H](CC(C)C)C(=O)N[C@@H](CC(C)C)C(=O)N[C@@H](CC(C)C)C(=O)N[C@@H](CCCCN)C(=O)N[C@H](C(N)=O)C(C)C [GLRILLLKV]
MIC (Pseudomonas sp. ADP): 15.4 µM (≈ 15.8 µg/mL) | MIC (Staphylococcus aureus): 3 µM (≈ 3.07 µg/mL) | MIC (Escherichia coli): 77.2 µM (≈ 79 µg/mL) | MIC (Arthrobacter sp.): ≥ 46.3 µM | MIC (Bacillus subtilis): 12.4 µM (≈ 12.7 µg/mL) | MIC (Bacillus thuringiensis): 30.8 µM (≈ 31.5 µg/mL)

CC[C@H](C)[C@H](NC(=O)[C@@H]1CCCN1C(=O)[C@H](CC(C)C)NC(=O)[C@@H](N)CC(C)C)C(=O)N[C@H](C(=O)NCC(=O)N[C@@H](C)C(=O)N[C@@H](CC(C)C)C(=O)N[C@@H](CC(C)C)C(=O)N[C@@H](CCCCN)C(=O)N[C@@H](CO)C(=O)N[C@@H](CC(C)C)C(=O)N[C@@H](CC(C)C)C(=O)O)C(C)C [LLPIVGALLKSLL]
MIC [12]: 14.8 µM (≈ 20 µg/mL) | MIC [13]: 7.41 µM (≈ 10 µg/mL)

CC[C@H](C)[C@H](NC(=O)[C@H](C)NC(=O)[C@H](CC(C)C)NC(=O)[C@H](Cc1c[nH]c2ccccc12)NC(=O)[C@H](CC(C)C)NC(=O)[C@@H](N)CCCN=C(N)N)C(=O)N[C@@H](Cc1c[nH]c2ccccc12)C(=O)N[C@@H](CCCN=C(N)N)C(=O)N[C@@H](CCCN=C(N)N)C(N)=O [RLWLAIWRR]
MIC [14]: 2 µM (≈ 2.54 µg/mL) | MIC [15]: 2 µM (≈ 2.54 µg/mL) | MIC [16]: 8 µM (≈ 10.1 µg/mL) | MIC [17]: 2 µM (≈ 2.54 µg/mL) | MIC [18]: 8 µM (≈ 10.1 µg/mL) | MIC [19]: 4 µM (≈ 5.07 µg/mL) | MIC [20]: 4 µM (≈ 5.07 µg/mL) | MIC [21]: 2 µM (≈ 2.54 µg/mL) | MIC [22]: 16 µM (≈ 20.3 µg/mL) | MIC [23]: 8 µM (≈ 10.1 µg/mL) | MIC [24]: 1 µM (≈ 1.27 µg/mL) | MIC [25]: 11.3 µM (≈ 14.4 µg/mL)

CC(C)C[C@H](NC(=O)[C@H](CCCN=C(N)N)NC(=O)[C@H](CCCN=C(N)N)NC(=O)[C@H](Cc1ccc(O)cc1)NC(=O)[C@H](CC(C)C)NC(=O)[C@H](CCCN=C(N)N)NC(=O)[C@H](CCCN=C(N)N)NC(=O)[C@H](Cc1ccc(O)cc1)NC(=O)[C@H](CC(C)C)NC(=O)[C@H](CCCN=C(N)N)NC(=O)[C@H](CCCN=C(N)N)NC(=O)[C@H](Cc1ccc(O)cc1)NC(=O)[C@H](CC(C)C)NC(=O)[C@@H](N)CCCN=C(N)N)C(=O)N[C@@H](Cc1ccc(O)cc1)C(=O)N[C@@H](CCCN=C(N)N)C(N)=O [RLYRRLYRRLYRRLYR]
MIC [26]: 0.5 µM and 1 µM | MIC [27]: 1.8 µM and 1.2 µM | MIC [28]: 0.9 µM and 1.4 µM | MIC [29]: 0.6 µM (≈ 1.42 µg/mL) | MIC [30]: 1.8 µM and 1.1 µM | MIC [31]: 0.8 µM and 1.2 µM | MIC [32]: 1.2 µM and 1.9 µM | MIC [5]: 1 µM and 0.7 µM | MIC [33]: 0.9 µM (≈ 2.13 µg/mL)

CC[C@H](C)[C@H](NC(=O)[C@H](CCCCN)NC(=O)[C@H](CCCCN)NC(=O)[C@H](Cc1ccccc1)NC(=O)[C@H](CC(C)C)NC(=O)[C@H](CCCCN)NC(=O)[C@@H](N)Cc1ccc(O)cc1)C(=O)N[C@@H](CC(C)C)C(=O)N[C@@H](CCCCN)C(=O)N[C@H](C(=O)N[C@@H](CC(C)C)C(N)=O)C(C)C [YKLFKKILKVL]
MIC [34]: ≥ 70.7 µM | MIC [35]: 17.3 µM (≈ 24.1 µg/mL) | MIC [36]: ≥ 35.4 µM | MIC [37]: 1.73 µM (≈ 2.41 µg/mL)
